For one compound, zone of inhibition results are on record in ChEMBL document CHEMBL1152689, “Synthesis, tautomerism, and antimicrobial, anti-HCV, anti-SSPE, antioxidant, and antitumor activities of arylazobenzosuberones” (Bioorg Med Chem, 2009).

Structures are written as SMILES.

The test system of the first experiment is Penicillium italicum. The experiment in a line: Antimicrobial activity against Penicillium italicum at 5 ug/mL by agar diffusion method. The conditions noted are these: read-out: IZ. It counts as functional. (In general: A growth-free zone around the sample is the usual read-out of agar diffusion tests.)
Turning to `CN(C/C=C/C#CC(C)(C)C)Cc1cccc2ccccc12` [TERBINAFINE], the zone of inhibition at 5 µg/mL worked out at 19 mm.

A further experiment deals with Syncephalastrum racemosum. Nature of the experiment: Antimicrobial activity against Syncephalastrum racemosum at 5 ug/mL by agar diffusion method. The class given is functional. To be noted: read-out: IZ.
`CN(C/C=C/C#CC(C)(C)C)Cc1cccc2ccccc12` [TERBINAFINE]: the zone of inhibition at 5 µg/mL stood at 21 mm.

A further experiment relates to Candida albicans. Nature of the experiment: Antimicrobial activity against Candida albicans at 5 ug/mL by agar diffusion method. It counts as functional. The conditions noted are these: read-out: IZ.
Regarding `CN(C/C=C/C#CC(C)(C)C)Cc1cccc2ccccc12` [TERBINAFINE], the zone of inhibition at 5 µg/mL stood at 19 mm.

The next experiment has as its system Staphylococcus aureus. The experiment in a line: Antimicrobial activity against Staphylococcus aureus at 5 ug/mL by agar diffusion method. It counts as functional. To be noted: read-out: IZ.
Take `CN(C/C=C/C#CC(C)(C)C)Cc1cccc2ccccc12` [TERBINAFINE]: the zone of inhibition at 5 µg/mL came out at 15 mm.

The next experiment concerns Pseudomonas aeruginosa. Nature of the experiment: Antimicrobial activity against Pseudomonas aeruginosa at 5 ug/mL by agar diffusion method. The class given is functional. The conditions noted are these: read-out: IZ.
In the case of `CN(C/C=C/C#CC(C)(C)C)Cc1cccc2ccccc12` [TERBINAFINE], the zone of inhibition at 5 µg/mL was determined as 11 mm.

The next experiment has as its system Bacillus subtilis. The experiment in a line: Antimicrobial activity against Bacillus subtilis at 5 ug/mL by agar diffusion method. The class given is functional. To be noted: read-out: IZ.
In the case of `CN(C/C=C/C#CC(C)(C)C)Cc1cccc2ccccc12` [TERBINAFINE], the zone of inhibition at 5 µg/mL is 22 mm.

In the next experiment the test system is Escherichia coli. The experiment in a line: Antimicrobial activity against Escherichia coli at 5 ug/mL by agar diffusion method. To be noted: read-out: IZ. It counts as functional.
Take `CN(C/C=C/C#CC(C)(C)C)Cc1cccc2ccccc12` [TERBINAFINE]: the zone of inhibition at 5 µg/mL came out at 27 mm.

A further experiment has as its system Aspergillus fumigatus. The experiment in a line: Antimicrobial activity against Aspergillus fumigatus at 2.5 ug/mL by agar diffusion method. To be noted: read-out: IZ. It counts as functional.
For `CN(C/C=C/C#CC(C)(C)C)Cc1cccc2ccccc12` [TERBINAFINE], the zone of inhibition at 2.5 µg/mL amounted to 18 mm.

The test system of another experiment is Penicillium italicum. Nature of the experiment: Antimicrobial activity against Penicillium italicum at 2.5 ug/mL by agar diffusion method. The class given is functional. To be noted: read-out: IZ.
`CN(C/C=C/C#CC(C)(C)C)Cc1cccc2ccccc12` [TERBINAFINE]: the zone of inhibition at 2.5 µg/mL was 9 mm.

For the next experiment, the system named is Syncephalastrum racemosum. The experiment in a line: Antimicrobial activity against Syncephalastrum racemosum at 2.5 ug/mL by agar diffusion method. The class given is functional. To be noted: read-out: IZ.
On to `CN(C/C=C/C#CC(C)(C)C)Cc1cccc2ccccc12` [TERBINAFINE], for which the zone of inhibition at 2.5 µg/mL was determined as 13 mm.

The next experiment concerns Candida albicans. The experiment in a line: Antimicrobial activity against Candida albicans at 2.5 ug/mL by agar diffusion method. The class given is functional. The conditions noted are these: read-out: IZ.
On to `CN(C/C=C/C#CC(C)(C)C)Cc1cccc2ccccc12` [TERBINAFINE], for which the zone of inhibition at 2.5 µg/mL came out at 10 mm.

A further experiment has as its system Staphylococcus aureus. Nature of the experiment: Antimicrobial activity against Staphylococcus aureus at 2.5 ug/mL by agar diffusion method. It counts as functional. The conditions noted are these: read-out: IZ.
For `CN(C/C=C/C#CC(C)(C)C)Cc1cccc2ccccc12` [TERBINAFINE], the zone of inhibition at 2.5 µg/mL came out at 6 mm.

A further experiment concerns Pseudomonas aeruginosa. The experiment in a line: Antimicrobial activity against Pseudomonas aeruginosa at 2.5 ug/mL by agar diffusion method. The class given is functional. To be noted: read-out: IZ.
For the compound `CN(C/C=C/C#CC(C)(C)C)Cc1cccc2ccccc12` [TERBINAFINE], the zone of inhibition at 2.5 µg/mL turned out to be 5 mm.

Another experiment relates to Bacillus subtilis. Nature of the experiment: Antimicrobial activity against Bacillus subtilis at 2.5 ug/mL by agar diffusion method. The class given is functional. The conditions noted are these: read-out: IZ.
For `CN(C/C=C/C#CC(C)(C)C)Cc1cccc2ccccc12` [TERBINAFINE], the zone of inhibition at 2.5 µg/mL is 18 mm.

The test system of another experiment is Escherichia coli. The experiment in a line: Antimicrobial activity against Escherichia coli at 2.5 ug/mL by agar diffusion method. To be noted: read-out: IZ. It counts as functional.
As to `CN(C/C=C/C#CC(C)(C)C)Cc1cccc2ccccc12` [TERBINAFINE], the zone of inhibition at 2.5 µg/mL turned out to be 20 mm.

For another experiment, the system named is Aspergillus fumigatus. The experiment in a line: Antimicrobial activity against Aspergillus fumigatus at 1.25 ug/mL by agar diffusion method. It counts as functional. The conditions noted are these: read-out: IZ.
`CN(C/C=C/C#CC(C)(C)C)Cc1cccc2ccccc12` [TERBINAFINE]: the zone of inhibition at 1.25 µg/mL amounted to 11 mm.

The test system of another experiment is Penicillium italicum. The experiment in a line: Antimicrobial activity against Penicillium italicum at 1.25 ug/mL by agar diffusion method. The class given is functional. The conditions noted are these: read-out: IZ.
As to `CN(C/C=C/C#CC(C)(C)C)Cc1cccc2ccccc12` [TERBINAFINE], the zone of inhibition at 1.25 µg/mL was found to be 4 mm.

Another experiment concerns Syncephalastrum racemosum. Nature of the experiment: Antimicrobial activity against Syncephalastrum racemosum at 1.25 ug/mL by agar diffusion method. It counts as functional. To be noted: read-out: IZ.
Take `CN(C/C=C/C#CC(C)(C)C)Cc1cccc2ccccc12` [TERBINAFINE]: the zone of inhibition at 1.25 µg/mL is 9 mm.

The subject of another experiment is Candida albicans. The experiment in a line: Antimicrobial activity against Candida albicans at 1.25 ug/mL by agar diffusion method. The class given is functional. To be noted: read-out: IZ.
Turning to `CN(C/C=C/C#CC(C)(C)C)Cc1cccc2ccccc12` [TERBINAFINE], the zone of inhibition at 1.25 µg/mL is 6 mm.

Another experiment has as its system Staphylococcus aureus. The experiment in a line: Antimicrobial activity against Staphylococcus aureus at 1.25 ug/mL by agar diffusion method. The conditions noted are these: read-out: IZ. The class given is functional.
Regarding `CN(C/C=C/C#CC(C)(C)C)Cc1cccc2ccccc12` [TERBINAFINE], the zone of inhibition at 1.25 µg/mL was determined as 4 mm.

The next experiment has as its system Pseudomonas aeruginosa. Nature of the experiment: Antimicrobial activity against Pseudomonas aeruginosa at 1.25 ug/mL by agar diffusion method. It counts as functional. To be noted: read-out: IZ.
In the case of `CN(C/C=C/C#CC(C)(C)C)Cc1cccc2ccccc12` [TERBINAFINE], the zone of inhibition at 1.25 µg/mL is 0 mm.

The next experiment concerns Bacillus subtilis. Nature of the experiment: Antimicrobial activity against Bacillus subtilis at 1.25 ug/mL by agar diffusion method. It counts as functional. To be noted: read-out: IZ.
In the case of `CN(C/C=C/C#CC(C)(C)C)Cc1cccc2ccccc12` [TERBINAFINE], the zone of inhibition at 1.25 µg/mL amounted to 11 mm.

In a further experiment the test system is Escherichia coli. The experiment in a line: Antimicrobial activity against Escherichia coli at 1.25 ug/mL by agar diffusion method. The class given is functional. The conditions noted are these: read-out: IZ.
For the compound `CN(C/C=C/C#CC(C)(C)C)Cc1cccc2ccccc12` [TERBINAFINE], the zone of inhibition at 1.25 µg/mL amounted to 13 mm.

Another experiment deals with Aspergillus fumigatus. The experiment in a line: Antimicrobial activity against Aspergillus fumigatus at 5 ug/mL by agar diffusion method. The conditions noted are these: read-out: IZ. It counts as functional.
`CN(C/C=C/C#CC(C)(C)C)Cc1cccc2ccccc12` [TERBINAFINE]: the zone of inhibition at 5 µg/mL is 24 mm.
